# Patent publication US11912675B1, “N'-(2-(5-(4-chlorophenyl)-1,3,4-oxadiazol-2-ylthio)acetoxy)-3,4-dimethoxybenzimidamide as an antimicrobial compound” (KING FAISAL UNIVERSITY, priority 2023, dated 2024)
# Columns and labels:
# Assay type in all cases: cell-based
# [1] = test system: Bacillus cereus; assay: agar plate disc-diffusion, antibacterial, Bacillus cereus; conditions: nutrient agar, 37° C., 48 h, DMSO control zone subtracted
# Description: (§1) The agar plate disc-diffusion method was applied. […] The discs were then placed onto the surface of agar plates (nutrient agar for bacteria and Sabouraud's dextrose agar for fungi) seeded with the test organism. Each plate contained 15 mL of the agar medium, previously seeded with 0.2 mL of the broth culture of each organism pregrown for 18 h. The plates were incubated at 37° C. for 48 h, and 72 h for fungi. The inhibition zones was measured in mm. Discs impregnated with DMSO were used as a control, and its inhibition zone was subtracted from the tested compound actual inhibition zone.
# (§2) The antibacterial activity was screened against gram positive bacteria namely Bacillus cereus and Staphylococcus aureus and gram-negative bacterial strains namely Pseudomonas aeruginosa and Escherichia coli, while the antifungal activity was screened against Aspergillus flavus and Chrysosporium keratinophilum as shown in Table 1 and 2.
# [2] = test system: Staphylococcus aureus; assay: agar plate disc-diffusion, antibacterial, Staphylococcus aureus; conditions: nutrient agar, 37° C., 48 h, DMSO control zone subtracted
# Description: as §1, §2
# [3] = test system: Pseudomonas aeruginosa; assay: agar plate disc-diffusion, antibacterial, Pseudomonas aeruginosa; conditions: nutrient agar, 37° C., 48 h, DMSO control zone subtracted
# Description: as §1, §2
# [4] = test system: Escherichia coli; assay: agar plate disc-diffusion, antibacterial, Escherichia coli; conditions: nutrient agar, 37° C., 48 h, DMSO control zone subtracted
# Description: The agar plate disc-diffusion method was applied. Sterilized filter papers (6 mm in diameter) were wetted with 10 μL of a solution of N′-(2-(5-(4-chlorophenyl)-1,3,4-oxadiazol-2-ylthio)acetoxy)-3,4-dimethoxybenzimidamide (3) to be tested, containing 10 mg/mL in DMSO, and the discs were allowed to air dry. The discs were then placed onto the surface of agar plates (nutrient agar for bacteria and Sabouraud's dextrose agar for fungi) seeded with the test organism. Each plate contained 15 mL of the agar medium, previously seeded with 0.2 mL of the broth culture of each organism pregrown for 18 h. The plates were incubated at 37° C. for 48 h, and 72 h for fungi. The inhibition zones was measured in mm. Discs impregnated with DMSO were used as a control, and its inhibition zone was subtracted from the tested compound actual inhibition zone.
# as §2
# [5] = test system: Aspergillus flavus; assay: agar plate disc-diffusion, antifungal, Aspergillus flavus; conditions: Sabouraud's dextrose agar, 72 h, DMSO control zone subtracted
# Description: as §1, §2
# [6] = test system: Chrysosporium keratinophilum; assay: agar plate disc-diffusion, antifungal, Chrysosporium keratinophilum; conditions: Sabouraud's dextrose agar, 72 h, DMSO control zone subtracted
# Description: as §1, §2
# [7] = B = concentration of comp. = 30,000 μL
# [8] = C = concentration of comp. = 50,000 μL
# [9] = A = concentration of comp. = 10,000 μg/mL
# [10] = A = concentration of comp. = 10,000 μL
smiles,measurement,setting,value
"COc1ccc(/C(N)=N/OC(=O)CSc2nnc(-c3ccc(Cl)cc3)o2)cc1OC [compound 3, N′-(2-(5-(4-chlorophenyl)-1,3,4-oxadiazol-2-ylthio)acetoxy)-3,4-dimethoxybenzimidamide]","inhibition zone, Bacillus Cereus, A",[1]; A =,27 mm
same,"inhibition zone, Bacillus Cereus, B",[1]; [7],30 mm
same,"inhibition zone, Bacillus Cereus, C",[1]; [8],40 mm
same,"inhibition zone, Staphylococcus aureus, A",[2]; [9],17 mm
same,"inhibition zone, Staphylococcus aureus, B",[2]; [7],22 mm
same,"inhibition zone, Staphylococcus aureus, C",[2]; [8],37 mm
same,"inhibition zone, Pseudomonas aeruginosa, A",[3]; [10],25 mm
same,"inhibition zone, Pseudomonas aeruginosa, B",[3]; [7],29 mm
same,"inhibition zone, Pseudomonas aeruginosa, C",[3]; [8],41 mm
same,"inhibition zone, Escherichia coli, A",[4]; [9],28 mm
same,"inhibition zone, Escherichia coli, B",[4]; [7],31 mm
same,"inhibition zone, Escherichia coli, C",[4]; [8],48 mm
same,"inhibition zone, Aspergillus flavus, A",[5]; [10],22 mm
same,"inhibition zone, Aspergillus flavus, B",[5]; [7],26 mm
same,"inhibition zone, Aspergillus flavus, C",[5]; [8],37 mm
same,"inhibition zone, Chrysosporium keratinophilum, A",[6]; A =,26 mm
same,"inhibition zone, Chrysosporium keratinophilum, B",[6]; [7],27 mm
same,"inhibition zone, Chrysosporium keratinophilum, C",[6]; [8],40 mm
